# According to paper PMC7357371, “Coumarin analogue 3-methyl-7H-furo[3,2-g]chromen-7-one as a possible antiparkinsonian agent” (Biomédica, 2019):
# Marks after values point to notes of the source that are not given here.
# Key:
# recombinant hMAO-A = biological target: T1, recombinant hMAO-A (Homo sapiens, UniProt P21397); assay: hMAO-A inhibitory activity (Amplex Red MAO kit)
# T1 sequence (P21397 1-527): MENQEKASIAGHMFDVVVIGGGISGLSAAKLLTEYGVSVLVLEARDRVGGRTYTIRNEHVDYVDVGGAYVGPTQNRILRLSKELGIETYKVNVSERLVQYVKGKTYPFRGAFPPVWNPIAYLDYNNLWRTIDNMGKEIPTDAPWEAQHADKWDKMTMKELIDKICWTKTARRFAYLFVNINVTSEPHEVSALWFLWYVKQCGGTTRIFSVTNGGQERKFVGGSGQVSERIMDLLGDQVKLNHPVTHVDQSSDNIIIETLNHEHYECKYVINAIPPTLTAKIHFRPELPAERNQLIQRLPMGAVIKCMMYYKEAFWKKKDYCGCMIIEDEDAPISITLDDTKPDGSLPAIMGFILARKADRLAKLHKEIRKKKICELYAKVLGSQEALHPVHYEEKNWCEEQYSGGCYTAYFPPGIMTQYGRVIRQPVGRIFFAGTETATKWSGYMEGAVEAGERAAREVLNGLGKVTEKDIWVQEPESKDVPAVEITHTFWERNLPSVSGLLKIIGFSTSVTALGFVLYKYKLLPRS
# Protocol: (§2) In the control experiments, the test drugs were replaced with dilutions of the vehicles. In addition, the specific fluorescence emission was calculated after subtraction of the background activity, which was determined from wells containing all components except the hMAO isoforms that were replaced by a sodium phosphate buffer solution.
# recombinant hMAO-B = biological target: T2, recombinant hMAO-B (Homo sapiens, UniProt P27338); assay: hMAO-B inhibitory activity (Amplex Red MAO kit)
# T2 sequence (P27338 1-520): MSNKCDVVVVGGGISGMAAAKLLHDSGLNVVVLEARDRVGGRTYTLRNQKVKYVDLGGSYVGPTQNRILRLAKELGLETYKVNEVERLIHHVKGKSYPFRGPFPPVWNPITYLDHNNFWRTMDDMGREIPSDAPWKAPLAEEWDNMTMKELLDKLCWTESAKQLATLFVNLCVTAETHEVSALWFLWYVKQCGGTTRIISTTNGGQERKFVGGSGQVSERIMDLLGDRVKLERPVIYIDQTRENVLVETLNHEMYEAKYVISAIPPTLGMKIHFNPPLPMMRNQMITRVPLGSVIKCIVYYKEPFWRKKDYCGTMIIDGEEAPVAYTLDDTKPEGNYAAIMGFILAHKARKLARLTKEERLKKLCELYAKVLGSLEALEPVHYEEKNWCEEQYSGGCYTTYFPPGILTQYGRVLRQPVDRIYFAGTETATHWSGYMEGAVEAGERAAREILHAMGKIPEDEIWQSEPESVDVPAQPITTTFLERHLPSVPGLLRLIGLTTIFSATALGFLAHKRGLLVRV
# Protocol: as §2
# male ICR mice [1] = assay: L-dopa/carbidopa plus MAO-B inhibitors in mice pretreated with reserpine (open-field test); type: in vivo, mouse; settings: reserpine 3 mg/kg i.p., FCS005 100 mg/kg p.o. plus L-dopa:carbidopa 100:10 mg/kg i.p.
# Protocol: (§3) In the reserpine model and l-dopa/carbidopa assays, the locomotor activity was evaluated in the open-field test. The open field was a square arena divided into 16 squares with surrounding walls to prevent escape. Animals were placed individually in the middle of the open field and the specific parameter evaluated was the number of cadres traversed during 5 minutes. The open field was cleaned with a water-alcohol (10%) solution before placing the next animal to eliminate possible bias due to odors left by previous subjects.
# Levodopa plus carbidopa were administrated i.p. 30 min later. Locomotor activity was evaluated at 2 and 24 h after the administration of reserpine.
# male ICR mice [2] = assay: Reserpine model, reversal of hypokinesia (open-field test); type: in vivo, mouse; settings: reserpine 3 mg/kg i.p., 100 mg/kg p.o.
# Protocol: as §3
# The vehicle was a mixture of 15% propylene glycol, 15% glycerol, and enough distilled water to make up 100%. Locomotor activity was evaluated at 2 and 24 h after reserpine administration.
# male ICR mice [3] = assay: Haloperidol-induced catalepsy, horizontal bar test; type: in vivo, mouse; settings: FCS005 100 mg/kg p.o.
# Protocol: Haloperidol was administered to the animals to induce rigidity and akinesia (catalepsy) [25]^,[26]. Catalepsy was defined as the prolonged maintenance of both forepaws in an atypical position on a horizontal bar.
# The animals received haloperidol (3 mg/kg) i.p.; FCS005 (100 mg/kg, p.o.), levodopa:carbidopa (400 mg/kg:40 mg/kg; p.o.) or vehicle (p.o) was administrated 30 min before. The reversal of catalepsy was evaluated for 2 min 60 min after the administration of the treatments.
# male ICR mice [4] = assay: Motor activity in mice not pretreated with reserpine (open-field test); type: in vivo, mouse; settings: 50 mg/kg p.o.
# Protocol: We used male ICR mice six to seven weeks old (25 - 30 g) provided by the bioterium of the Departamento de Farmacia, Facultad de Ciencias, at Universidad Nacional de Colombia. The animals were kept under standard laboratory conditions, 12-hour light-dark cycles, and at room temperature (22 ± 1°C) with food and water available ad libitum.
# The open field was a square arena divided into 16 squares with surrounding walls to prevent escape. Animals were placed individually in the middle of the open field and the specific parameter evaluated was the number of cadres traversed during 5 minutes. The open field was cleaned with a water-alcohol (10%) solution before placing the next animal to eliminate possible bias due to odors left by previous subjects.
# [5] = tested on: brain homogenates of mice; assay: Ex vivo protein carbonyl groups in brain homogenates of haloperidol-treated mice; design: species or system mouse; settings: 10 days, FCS005 50 mg/kg p.o., levodopa:carbidopa 400:40 mg/kg p.o., haloperidol 1 mg/kg i.p., compared to control animals
# Protocol: (§1) Antioxidant activity was evaluated ex vivo. Mice were administered daily for 10 days with the treatments FCS005 (50 mg/kg, p.o.), levodopa:carbidopa (400 mg/kg:40 mg/kg, p.o.) or vehicle (p.o.) followed by haloperidol (1 mg/kg, i.p.) 30 min later. Then, the animals were killed by decapitation and the brains were removed, washed in 1% KCl, dissected on an ice-cold plate, and homogenized in 50 mM Tris-HCl buffer (pH 7.4). Homogenates were centrifuged (10,000 rpm for 10 min at 4°C). The final supernatant was stored at -20°C. The protein content of each sample was determined by the Bradford method.
# Quantification of protein carbonyl groups was determined by the technique of Levine, et al.[28], following the protocol described by Baltacioglu, et al.[29]. Briefly, 250 µL of 10 mM 2,4-dinitrophenylhydrazine (DNPH) or 250 µL of 2 M HCl were added to the brain homogenate (50 µL) for the sample or the blank, respectively. The samples were left at room temperature in the dark for 1 h and vigorously stirred every 15 min. Then, 500 µL of trichloroacetic acid (20%) was added. The samples were kept in an ice bath for 15 min and then centrifuged at 11,000 rpm for 5 min. […] The absorbance was determined at 360 nm. The content of carbonyl groups was calculated based on the molar extinction coefficient of DNPH (ε = 22 000 cm-1M-1) and expressed as nmol/mg protein [29].
# [6] = tested on: brain homogenates of mice; assay: Ex vivo lipid peroxidation (TBARS) in brain homogenates of haloperidol-treated mice; design: species or system mouse; settings: 10 days, FCS005 50 mg/kg p.o., levodopa:carbidopa 400:40 mg/kg p.o., haloperidol 1 mg/kg i.p., compared to control animals
# Protocol: as §1
# The index of lipid peroxidation was evaluated following the protocol described by Hijova, et al.[27]. The brain homogenate (450 µL), 1 mL trichloroacetic acid (10%), and 50 µL of 50 mM phosphate buffer (pH 7.4) were centrifuged at 1850 xg for 10 min at 4°C; then, 1 mL of thiobarbituric acid (0.67%) was added to 1 mL of the supernatant. This mixture was heated to 92°C for 30 min and then cooled in an ice bath (4°C) before the absorbance was measured at 532 nm. The results were expressed as thiobarbituric acid reactive substances (TBARS) in mmol/mL/mg of tissue protein.
# [7] = tested on: MAO activities in rat brain mitochondria; design: method as in PMID 11169165; settings: in vitro; cited from earlier work
IC50 (recombinant hMAO-A) [µM],Inhibition of MAO-A isoform activity (recombinant hMAO-A; at the highest concentration tested (100 µM)),IC50 (recombinant hMAO-B) [µM],"Selectivity index [IC50 (hMAO-A)]/[IC50 (hMAO-B)] (recombinant hMAO-B; hMAO-B selectivity ratio, for FCS005 hMAO-A IC50 assumed to be 100 µM (highest concentration tested))",SMILES,Selectivity of MAO inhibition (recombinant hMAO-B; MAO-B vs MAO-A),"Number of cadres traversed (male ICR mice [1]; 2 h after reserpine, p: 0.038 vs control)","Number of cadres traversed (male ICR mice [1]; 24 h after reserpine, p: 0.018 vs control)","Reversal of hypokinesia produced by reserpine (number of cadres traversed) (male ICR mice [2]; 2 h after reserpine, p: 0.007 vs control)","Reversal of hypokinesia produced by reserpine (number of cadres traversed) (male ICR mice [2]; 24 h after reserpine, p: 0.002 vs control)","Total catalepsy time (male ICR mice [3]; haloperidol 3 mg/kg i.p., levodopa:carbidopa 400:40 mg/kg p.o., at 60 min, p: 0.001)",Cataleptic effects of the treatment itself (male ICR mice [3]; horizontal bar test),"Locomotor activity (number of cadres traversed in 5 min) (male ICR mice [4]; at 2 hours, p: 0.023 vs control)","Locomotor activity (number of cadres traversed in 5 min) (male ICR mice [4]; at 24 hours, p: 0.003 vs control)",Protein carbonyl groups [5],Lipid peroxidation levels (TBARS) [6],"Inhibitory actions on MAO activities, isoform preference [7]"
> 100,did not inhibit MAO-A isoform activity,41.6 ± 2.79,> 2.4^c,"Cc1coc2cc3oc(=O)ccc3cc12 [FCS005, 3-methyl-7H-furo[3,2-g]chromen-7-one]",selective inhibitory activity towards MAO-B,increased the number of cadres traversed,increased the number of cadres traversed,reversal of hypokinesia,reversal of hypokinesia,significant decrease in the total catalepsy time,did not show any cataleptic effects,significant decrease in the locomotor activity,significant decrease in the locomotor activity,lower,lower,
,,,,O=c1ccc2cc3ccoc3cc2o1 [Psoralen],,,,,,,,,,,,preferentially inhibiting MAO-A activity over MAO-B activity
